From patent publication US11292796B2 (SIGNAL PHARMACEUTICALS, LLC, priority 2008, dated 2022)

Molecular target: T1, mTOR (Homo sapiens, UniProt P42345)
T1 construct: purchased Invitrogen PR8683A
Assay: mTOR HTR-FRET assay
Assay type: biochemical
Settings: read-out: Act. Level (IC50 in mTor HTR-FRET assay)
Procedure, shortened: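 Test compounds, taken from 10 mM DMSO stocks and diluted, were mixed with mTOR enzyme (0.200 μg/mL) in Tris buffer pH 7.4 with 100 mM NaCl, 0.1% Tween-20 and 1 mM DTT. ATP/substrate addition initiated the reaction, alongside compound-free controls.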

T1 sequence (P42345 1360-2549 limits assumed): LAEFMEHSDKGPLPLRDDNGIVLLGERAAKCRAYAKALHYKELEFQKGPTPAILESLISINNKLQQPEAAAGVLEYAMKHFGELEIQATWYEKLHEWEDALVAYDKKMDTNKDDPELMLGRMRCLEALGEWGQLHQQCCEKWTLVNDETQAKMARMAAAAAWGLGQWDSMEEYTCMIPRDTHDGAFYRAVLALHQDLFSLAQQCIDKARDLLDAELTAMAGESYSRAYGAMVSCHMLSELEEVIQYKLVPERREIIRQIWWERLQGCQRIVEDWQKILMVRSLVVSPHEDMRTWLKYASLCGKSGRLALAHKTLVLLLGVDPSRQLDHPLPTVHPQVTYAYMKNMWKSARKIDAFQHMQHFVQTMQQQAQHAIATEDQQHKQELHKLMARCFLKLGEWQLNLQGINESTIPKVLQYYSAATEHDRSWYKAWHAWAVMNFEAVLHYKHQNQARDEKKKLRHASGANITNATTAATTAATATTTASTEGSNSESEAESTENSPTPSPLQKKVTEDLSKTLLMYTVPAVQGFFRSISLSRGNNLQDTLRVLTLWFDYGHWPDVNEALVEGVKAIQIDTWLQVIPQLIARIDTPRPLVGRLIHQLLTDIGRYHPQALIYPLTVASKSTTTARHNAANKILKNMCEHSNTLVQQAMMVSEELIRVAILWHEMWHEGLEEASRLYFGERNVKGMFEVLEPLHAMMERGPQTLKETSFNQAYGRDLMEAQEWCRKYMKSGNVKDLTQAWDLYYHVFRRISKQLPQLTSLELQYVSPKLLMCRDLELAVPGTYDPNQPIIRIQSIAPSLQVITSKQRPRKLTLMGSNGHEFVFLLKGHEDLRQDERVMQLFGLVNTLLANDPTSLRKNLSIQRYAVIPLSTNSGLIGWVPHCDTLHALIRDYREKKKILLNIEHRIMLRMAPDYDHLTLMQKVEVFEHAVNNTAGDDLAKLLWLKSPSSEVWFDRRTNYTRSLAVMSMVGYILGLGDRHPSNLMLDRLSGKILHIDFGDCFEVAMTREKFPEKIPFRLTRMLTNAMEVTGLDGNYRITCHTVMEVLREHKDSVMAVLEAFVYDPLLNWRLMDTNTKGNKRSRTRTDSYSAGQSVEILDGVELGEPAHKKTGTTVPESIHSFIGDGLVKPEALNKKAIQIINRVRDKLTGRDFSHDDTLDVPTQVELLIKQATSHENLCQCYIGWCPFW

Which IC50 does the source give for `COCCN1C(=O)CNc2ncc(-c3ccc(-c4nc[nH]n4)nc3)nc21` [Example 163, 7-(6-(1H-1,2,4-triazol-3-yl)pyridin-3-yl)-1-(2-methoxyethyl)-3,4-dihydropyrazino[2,3-b]pyrazin-2(1H)-one] here?
Its IC50 is 0.005 to 250 nM.

How did the IC50 turn out when `NC(=O)c1cccc(-c2cnc3c(n2)N(CCC2CCOCC2)CC(=O)N3)c1` [Example 33, 3-(6-oxo-8-(2-(tetrahydro-2H-pyran-4-yl)ethyl)-5,6,7,8-tetrahydropyrazino[2,3-b]pyrazin-2-yl)benzamide] was run?
The IC50 was 500 to 1000 nM.

Which IC50 does the source give for `CO[C@H]1CC[C@H](CN2C(=O)CNc3ncc(-c4cnc(C(N)=O)cc4C)nc32)CC1` [Example 206, 5-(8-((trans-4-methoxycyclohexyl)methyl)-7-oxo-5,6,7,8-tetrahydropyrazino[2,3-b]pyrazin-2-yl)-4-methylpicolinamide] here?
The IC50 was 1000 to 10000 nM.

Which IC50 does the source give for `CC(C)(O)c1ccc(-c2cnc3c(n2)N(CCC2CCCOC2)CC(=O)N3)cn1` (centres unmarked) [Example 109, 6-(6-(2-hydroxypropan-2-yl)pyridin-3-yl)-4-(2-(tetrahydro-2H-pyran-3-yl)ethyl)-3,4-dihydropyrazino[2,3-b]pyrazin-2(1H)-one] here?
The IC50 was 0.005 to 250 nM.

With `C[C@H]1C(=O)Nc2ncc(-c3ccc(C(C)(C)O)nc3)nc2N1CCC1CCOCC1` [Example 132, (S)-6-(6-(2-hydroxypropan-2-yl)pyridin-3-yl)-3-methyl-4-(2-(tetrahydro-2H-pyran-4-yl)ethyl)-3,4-dihydropyrazino[2,3-b]pyrazin-2(1H)-one] as the molecule, how does the IC50 read?
The IC50 was 0.005 to 250 nM.
